Assay results taken from patent US20170198044A1, “COMPOSITIONS AND METHODS FOR SAFE AND EFFECTIVE IMMUNOTHERAPY” (TheraMAB LLC, priority 2014, published 2017).

What was measured:
Type in all cases: cell-based, human
[1] = tested on: anti-CD3 stimulated CFSE-labeled CD4+ T cells; experiment: Treg-cell suppression assay; settings: Enbrel during Treg-cell expansion, RA patient
[2] = tested on: regulatory T cells; experiment: Regulatory T cells and Ki67+ Tregs in RESTORE system, PBMC samples from RA patients (Table 16)
Protocol: (§1) PBMC were cultured in supplemented RPMI 1640 containing 10% AB-positive heat-inactivated human serum (Sigma) for two days at high cell density (HD; 1×10^7/ml) to allow tissue-like interactions. Cells were then harvested and cultured under standard conditions (1×10^6/ml) in 96 or 48-well flat-bottom tissue culture plates in a final volume of 0.2 or 0.6 ml in a humidified incubator at 37° C. with 5% CO2. Intracellular Ki67 staining was used to measure cell proliferation. For intracellular staining of Foxp3, Ki67 and CD4, cells were first surface stained, permeabilized with Fix/Perm (eBioscience), and stained with the appropriate antibodies diluted in Perm/Wash (eBioscience). FACS analysis was performed using a FACSCalibur flow cytometer (BD Biosciences). Data were analyzed using FlowJo software (TreeStar).

[3] = tested on: PBMC samples taken from RA patients; experiment: In vitro RESTORE system: cytokine production by PBMC samples from RA patients; settings: OKT3 1 μg/ml
Source text: The purpose of the RESTORE method application was definition of safety parameters of the use of TAB08 antibody and the possibility of participation of RA patients in clinical trials, in particular:
To determine the levels of response of peripheral blood mononuclear cells of RA patients to various concentrations of TAB08, i.e. trace the dose-dependence of cytokine release by mononuclear cells exposed to TAB08 in vitro.
To determine the ability of methylprednisolone, which has an anti-inflammatory effect, to suppress TAB08-induced cytokine release.
as §1

[4] = tested on: Treg cells; experiment: Treg-cell vs Tconv-cell expansion and proliferation in HD precultured PBMCs (flow cytometry, Ki67, CFSE); settings: 0.01 mM MP, TAB08 1 μg/mL
Protocol: Treg-cell (CD25^hiFoxp3^+) and activated Tconv-cell (CD25^loFoxp3^−) frequencies among gated CD4^+ T cells were then assessed by flow cytometry using a live light-scatter entrance gate. […] Treg-cell frequencies among CD4^+ T cells and absolute numbers of Treg cells were determined by flow cytometry after 5 days of culture. […] Treg-cell versus Tconv-cell expansion in CD25-depleted and nondepleted PBMC cultures was then assessed by flow cytometry, using a live light-scatter entrance gate followed by gates for CD4^+Foxp3^− (left dot plots) and CD4^+Foxp3^+ (right dot plots). […] Proliferation was assessed by, in Panel D, the expression of Ki67 and Panel E CFSE dilution. *denotes insufficient number of cells for evaluation. […]
Cell proliferation was measured from day 2 to 3 as radioactivity incorporated from [H^3] thymidine (1 μCi per well, Hartmann Analytic GmbH) into DNA, using a liquid scintillation counter (PerkinElmer). Results are expressed as counts per minute (cpm). […]
For phenotypic analysis, cells were stained with the appropriate antibodies for 20 min at 4° C., washed once with FACS buffer (PBS, 0.1% BSA, 0.2% NaN3), and fixed with 2% paraformaldehyde. […] Data were analyzed using FlowJo Version 9.4.11 software (TreeStar). Results are shown as log 10 fluorescence intensities. […]

Molecule: Enbrel
- effect on suppressive activity of TAB08-expanded Treg cells [1]: did not lead to further enhancement of suppressive activity

Molecule: OKT3: Clinical grade OKT3 (Janssen-Cilag), anti-CD3 (anti-TCR) antibody used as stimulus
- % FoxP3+/CD4+ ([2]; Patient 0104, OKT3 1 μg_mL): 4.96%
- % Ki67+/FoxP3+ CD4+ ([2]; Patient 0104, OKT3 1 μg_mL): 84.9%
- % FoxP3+/CD4+ ([2]; Patient 0105, OKT3 1 μg_mL): 5.1%
- % Ki67+/FoxP3+ CD4+ ([2]; Patient 0105, OKT3 1 μg_mL): 80.5%
- % FoxP3+/CD4+ ([2]; Patient 0204, OKT3 1 μg_mL): 4.52%
- % Ki67+/FoxP3+ CD4+ ([2]; Patient 0204, OKT3 1 μg_mL): 77.7%
- % FoxP3+/CD4+ ([2]; Patient 0205, OKT3 1 μg_mL): 4.62%
- % Ki67+/FoxP3+ CD4+ ([2]; Patient 0205, OKT3 1 μg_mL): 67.7%
- % FoxP3+/CD4+ ([2]; Patient 0206, OKT3 1 ug_ml): 2.79%
- % Ki67+/FoxP3+ CD4+ ([2]; Patient 0206, OKT3 1 ug_ml): 80.8%
- IL-2 production [3]: 0.00 pg/mL

Molecule: C[C@H]1C[C@@H]2[C@H]([C@@H](O)C[C@@]3(C)[C@H]2CC[C@]3(O)C(=O)CO)[C@@]2(C)C=CC(=O)C=C12 [MP, methylprednisolone]
- suppression of division of CD4+ Tconv cells (CFSE) [4]: ~80%
